According to patent EP0362382A1, “METHOD OF STERILIZING PLANT POLLEN” (VSESOJUZNY NAUCHNO-ISSLEDOVATELSKY INST. SELSKOKHOZYAISTV. …, priority 1988, dated 1989):

Legend:
Winterweizen = experiment: Field test of gametocidal activity (sterilisation of anthers), winter wheat; format: in vivo; details: V. Periode der Organogenese, 2%ige wäßrige Emulsion
From the text: (§1) Die gametozide Aktivitat der erfindungsgemäßen Sterilisationsmittel war im Feldversuch in verschiedenen bodenklimatischen Zonen mit Teilstücken von 10 m^2 Größe in drei- bis viermaliger Wiederholung festgestellt. Jedes Sterilisationsmittel wurde mindenstens 5 Jahre lang geprüft.
(§2) Die Entwicklung der Perioden der Organogenese wird zytologisch überwacht. Die Behandlung von Pflanzen mit dem Sterilisationsmittel erfolgt am Anfang der fünften Periode der Organogenese nach Kupermann.
(§3) Mit dem Ährenschieben verwirklicht man die Isolierung von Hauptähren und anderen Stockwerken in Pergamentbeuteln. Bei Weizen und Tritikale werden Einzelisolatoren benutzt. Bei Roggen schließt man je Ähre 5 bis 7 verschiedene nebeneinander befindliche Pflanzen unter einen gemeinsamen Isolator ein. Bei Hierse wird jede Rispe getrennt isoliert. Der Sterilitätsprozentsatz (X) für Weizen, Roggen, Tritikale und Hirse wird nach der Formel [formula] ermittelt.
(§4) Die Kornzahl in nicht isolierten Ähren von Kontrollpflanzen wird bedingt für 100 % Ansetzen bei freier Bestäubung angenommen.
(§5) Um zuverlässige Angaben zu erhalten, verwendet man 20 bis 25 Isolatoren jeder Wiederholung für Weizen und Tritikale, 10 .bis 15 Isolatoren jeder Wiederholung für Roggen und Hirse.
Pflanzen des Winterweizens Sorte Mironowskaja 808 werden in der V. Periode der Organogenese durch Zerstäubung der 2%igen wäßrigen Emulsion der δ, δ' -Thiodivaleriansäure mit Hilfe einer Rückenspritze behandelt. Als Emulgiermittel wird 0,1 Masse% Kalziumalkylbenzalsulfonat mit 12 bis 14 Kohlenstoffatomen hinzugefügt. Als Adjuvans führt man in die Emulsion 0,01 Masse% Dimethylsulfoxid ein. Der Verbrauch an Präparat beträgt 20 kg/ha. Als Kontrolle dienen Pflanzen, behandelt mit einem Verdünner ohne Sterilisationsmittel. Die Ergebnisse sind in der Tabelle 1 angegeben. […] Periode der Organogenese erhalten.
Der Prozeß erfolgt analog zu dem im Beispiel 1 bescnriebenen. Als Sterilisationsmittel benutzt man 2%ige wäßrige Emulsion von Natriumsalz der δ, δ'-Thiodivaleriansäure, δ, δ' -Sulfonyldivaleriansäure, Natriumsalz der δ, δ' -Sulfonyldivaleriansäure, Kaliumsalz der δ, δ'--Sulfonyldivaleriansäure, Bis(di-n-butyläther) der δ, δ'--Thiodivaleriansäure, 4-Karboxybutyldezylsulfid bzw.
Pflanzen des Winterweizens Sorte Korall werden in der V. Periode der Organogenese (nach Kupermann) mit 2%iger wäßriger Emulsion von Bis(2-äthylhexyläther) der δ, δ' --Thiodivaleriansäure, 4-Karboxybutyldezylsulfid bzw. Bis(di--n-butyläther) der δ, δ' -Thiodivalerianqäure behandelt. Die Emulsion enthält 0,1 Masse% Kalziumalkylbenzolsulfonat mit 12 bis 14 Kohlenstoffatomen und 0,01 Masse% Dodezylsulfat. Der Verbrauch an Präparat beträgt 12 kg/ha. Als Kontrolle dienen Pflanzen, behandelt mit einem Verdünner ohne Sterilisationsmittel. Die Prüfergebnisse sind in der Tabelle 2 angegeben.
Pflanzen des Winterweizens Gordeiforme 12303 werden in der V. Periode der Organogenese (nach Kupermann) mit 2%iger wäßriger Emulsion von 4-Karboxybutyldezylsulfid, Bis(2-äthylhexyläther) der δ, δ' -Thiodivaleriansäure, δ, δ' -Sulfonyldivaleriansäure behandelt. Die Emulsion enthält als Emulgiermittel 0,1 Masse% Kalziumalkylbenzolsulfonat mit 12 bis 14 Kohlenstoffatomen und 0,01 Masse% Dimethylformamid. Der Verbrauch an Präparat beträgt 16 kg/ha. Als Kontrolle dienen Pflanzen, behandelt mit einem Verdünner ohne Sterilisationsmittel.

diploidem Roggen = experiment: Field test of gametocidal activity (sterilisation of anthers), diploid rye; format: in vivo; details: Sorte Wosohod 2; V. Periode der Organogenese; 1%ige wäßrige Emulsion; 6 kg/ha
From the text: as §1, §2, §3, §4, §5
Pflanzen von diploidem Roggen Sorte Wosohod 2 werden in der V. Periode der Organogenese (nach Kupermann) mit 1%iger wäßriger Emulsion von Bis(di-n-butyläther) der δ, δ' -Thiodivaleriansäure, 4-Krboxybutyldezylsulfid, Natriumsalz der δ, δ' -Thiodivaleriansäure, Bis(2-äthylhexyläther) der δ, δ' -Thiodivaleriansäure, δ, δ' -Sulfonyldivaleriansäure, Natriumsalz der δ, δ'-Sulfonyldivaleriansäure, Kaliumsalz der δ, δ' -Sulfonyldivaleriansäure behandelt. Die Emulsion enthält 0,1 Masse% […] mit 12 bis 14 Kohlenstoffatomen und 0,01 Masse% Tetrahydrofuran. Der Verbrauch an Präparat beträgt 6 kg/ha. Als Kontrolle dienen Pflanzen, behandelt mit einem Verdünner ohne Sterilisationsmittel.
Pflanzen von diploidem Roggen Sorte Gibrid 1861/79 werden in der V. und VI. Periode der Organogenese (nach Kupermann) mit 1%iger wäßriger Emulsion von Bis(di-n-butyläther) der δ, δ' -Thiodivaleriansäure, δ, δ' -Thiodivaleriansäure, Natriumsalz der δ δ' -Thiodivaleriansäure, 4-Karboxybutyldezylsulfid, δ , δ' -Sulfonyldivaleriansäure, Kaliumsalz der δ, δ' -Sulfonyldivaleriansäuleriansäure, Kaliumalz der δ' -Sulfonyldivaleriansäure, Bis(2-äthylhexyläther) der δ, δ' -Thiodivaleriansäure behandelt. Die Emulsion enthält 0,1 Masse% Kalziumalkylbenzolsulfonat mit 12 bis 14 Kohlenstoffatomen und 0,01 Masse% Dimethylformamid. Der Verbrauch an Präparat beträgt 8 kg/ha. Als Kontrolle dienen Pflanzen, behandelt mit einem Verdünner ohne Sterilisationsmittel. Die Prüfergebnisse sind in der Tabelle 10 angegeben.

[1] = Sorte Mironowskaja 808, 20 kg/ha

O=C([O-])CCCCS(=O)(=O)CCCCC(=O)[O-].[Na+].[Na+] [Beispiel 4, Natriumsalz der δ, δ' -Sulfonyldivaleriansäure]
Anzahl von Körnern der Ähre bei freier Bestäubung (Winterweizen; [1]): 34,1 | Anzahl von Körnern der Ähre im Isolator (Winterweizen; [1]): 0,1 | Prozentsatz der Sterilität (Winterweizen; [1]): 99,8% | Prozentsatz des Ansetzens von Körnern bei freier Bestäubung (Winterweizen; [1]): 82,8%

O=C([O-])CCCCS(=O)(=O)CCCCC(=O)[O-].[K+].[K+] [Beispiel 5, Kaliumsalz der δ, δ'--Sulfonyldivaleriansäure]
Anzahl von Körnern der Ähre bei freier Bestäubung (Winterweizen; [1]): 40,7 | Anzahl von Körnern der Ähre im Isolator (Winterweizen; [1]): 0,1 | Prozentsatz der Sterilität (Winterweizen; [1]): 99,8% | Prozentsatz des Ansetzens von Körnern bei freier Bestäubung (Winterweizen; [1]): 98,8%

CCCCCCCCCCSCCCCC(=O)O [Beispiel 7, 4-Karboxybutyldezylsulfid]
Anzahl von Körnern der Ähre bei freier Bestäubung (Winterweizen; [1]): 35,6 | Anzahl von Körnern der Ähre im Isolator (Winterweizen; [1]): 0,0 | Prozentsatz der Sterilität (Winterweizen; [1]): 100,0% | Prozentsatz des Ansetzens von Körnern bei freier Bestäubung (Winterweizen; [1]): 86,4%

CCCCC(CC)COC(=O)CCCCSCCCCC(=O)OCC(CC)CCCC (centres unmarked) [Beispiel 8]
Anzahl von Körnern der Ähre bei freier Bestäubung (Winterweizen; [1]): 36,1 | Anzahl von Körnern der Ähre im Isolator (Winterweizen; [1]): 0,0 | Prozentsatz der Sterilität (Winterweizen; [1]): 100,0% | Prozentsatz des Ansetzens von Körnern bei freier Bestäubung (Winterweizen; [1]): 87,6%

CCCCC(CC)COC(=O)CCCCSCCCCC(=O)OCC(CC)CCCC (centres unmarked) [Beispiel 9, Bis(2-äthylhexyläther) der δ, δ' --Thiodivaleriansäure]
Anzahl von Körnern der Ähre bei freier Bestäubung (Winterweizen; Sorte Korall, 12 kg/ha): 30,8 | Anzahl von Körnern der Ähre im Isolator (Winterweizen; Sorte Korall, 12 kg/ha): 0,0 | Prozentsatz der Sterilität (Winterweizen; Sorte Korall, 12 kg/ha): 100,0% | Prozentsatz des Ansetzens von Körnern bei freier Bestäubung (Winterweizen; Sorte Korall, 12 kg/ha): 95,1%

CCCCCCCCCCSCCCCC(=O)O [Beispiel 10, 4-Karboxybutyldezylsulfid]
Anzahl von Körnern der Ähre bei freier Bestäubung (Winterweizen; Sorte Korall, 12 kg/ha): 29,1 | Anzahl von Körnern der Ähre im Isolator (Winterweizen; Sorte Korall, 12 kg/ha): 0,1 | Prozentsatz der Sterilität (Winterweizen; Sorte Korall, 12 kg/ha): 99,5% | Prozentsatz des Ansetzens von Körnern bei freier Bestäubung (Winterweizen; Sorte Korall, 12 kg/ha): 89,8%

CCCCCCCCCCSCCCCC(=O)O [Beispiel 12, 4-Karboxybutyldezylsulfid]
Anzahl von Körnern der Ähre bei freier Bestäubung (Winterweizen; Gordeiforme 12303, 16 kg/ha): 21,6 | Anzahl von Körnern der Ähre im Isolator (Winterweizen; Gordeiforme 12303, 16 kg/ha): 0,0 | Prozentsatz der Sterilität (Winterweizen; Gordeiforme 12303, 16 kg/ha): 100,0% | Prozentsatz des Ansetzens von Körnern bei freier Bestäubung (Winterweizen; Gordeiforme 12303, 16 kg/ha): 74,2%

CCCCC(CC)COC(=O)CCCCSCCCCC(=O)OCC(CC)CCCC (centres unmarked) [Beispiel 13, Bis(2-äthylhexyläther) der δ, δ' -Thiodivaleriansäure]
Anzahl von Körnern der Ähre bei freier Bestäubung (Winterweizen; Gordeiforme 12303, 16 kg/ha): 25,3 | Anzahl von Körnern der Ähre im Isolator (Winterweizen; Gordeiforme 12303, 16 kg/ha): 0,0 | Prozentsatz der Sterilität (Winterweizen; Gordeiforme 12303, 16 kg/ha): 100,0% | Prozentsatz des Ansetzens von Körnern bei freier Bestäubung (Winterweizen; Gordeiforme 12303, 16 kg/ha): 86,9%

O=C(O)CCCCS(=O)(=O)CCCCC(=O)O [Beispiel 14, δ, δ' -Sulfonyldivaleriansäure]
Anzahl von Körnern der Ähre bei freier Bestäubung (Winterweizen; Gordeiforme 12303, 16 kg/ha): 23,6 | Anzahl von Körnern der Ähre im Isolator (Winterweizen; Gordeiforme 12303, 16 kg/ha): 0,1 | Prozentsatz der Sterilität (Winterweizen; Gordeiforme 12303, 16 kg/ha): 99,7% | Prozentsatz des Ansetzens von Körnern bei freier Bestäubung (Winterweizen; Gordeiforme 12303, 16 kg/ha): 81,1%

CCCCOC(=O)CCCCSCCCCC(=O)OCCCC [Beispiel 37, Bis(di-n-butyläther) der δ, δ' -Thiodivaleriansäure]
Anzahl von Körnern der Ähre bei freier Bestäubung (diploidem Roggen): 50,9 | Anzahl von Körnern der Ähre im Isolator (diploidem Roggen): 0,0 | Prozentsatz der Sterilität (diploidem Roggen): 100,0% | Prozentsatz des Ansetzens von Körnern bei freier Bestäubung (diploidem Roggen): 93,2%

CCCCCCCCCCSCCCCC(=O)O [Beispiel 38, 4-Krboxybutyldezylsulfid]
Anzahl von Körnern der Ähre bei freier Bestäubung (diploidem Roggen): 50,5 | Anzahl von Körnern der Ähre im Isolator (diploidem Roggen): 0,0 | Prozentsatz der Sterilität (diploidem Roggen): 100,0% | Prozentsatz des Ansetzens von Körnern bei freier Bestäubung (diploidem Roggen): 92,5%
